Measurements from patent publication US20110263651A1, “NOVEL PIPERIDINE-BUTYRAMIDE DERIVATIVES AND THEIR USE AS MONOAMINE NEUROT[…]-UPTAKE INHIBITORS” (N[…]/S, priority 2008, published 2011).
pIC50: −log10 of the molar value. Structures can show the parent of a compound that is named as a salt.

Key:
Type in all cases: biochemical
[1] = tested on: serotonine (5-HT) reuptake in synaptosomes; assay: Inhibition of 5-HT reuptake in synaptosomes; conditions: 3H-5-HT, read-out: 5-HT-uptake IC50
Method: (§1) Compounds were tested for their ability to inhibit the reuptake of the monoamine neurotransmitters dopamine (DA) noradrenaline (NA) and serotonine (5-HT) in synaptosomes as described in WO 97/16451 (NeuroSearch NS).
(§2) The test values are given as IC50 (the concentration (μM) of the test substance which inhibits the specific binding of ^3H-DA, ^3H-NA, or ^3H-5-HT by 50%).

[2] = tested on: dopamine (DA) reuptake in synaptosomes; assay: Inhibition of DA reuptake in synaptosomes; conditions: 3H-DA, read-out: DA-uptake IC50
Method: as §1, §2

[3] = tested on: noradrenaline (NA) reuptake in synaptosomes; assay: Inhibition of NA reuptake in synaptosomes; conditions: 3H-NA, read-out: NA-uptake IC50
Method: as §1, §2

| Structure (SMILES) | pIC50 [1] | pIC50 [2] | pIC50 [3] |
| --- | --- | --- | --- |
| CCN(C(=O)CCCC1CCN(C)CC1)c1ccc(Cl)c(Cl)c1 [Compound 4.1, N-(3,4-Dichloro-phenyl)-N-ethyl-4-(1-methyl-piperidin-4-yl)-butyramide fumaric acid salt] | 6.10 | 8.16 | 7.92 |
| CCN(C(=O)CCCC1CCNCC1)c1ccc(Cl)c(Cl)c1 [Compound 3.1, N-(3,4-Dichloro-phenyl)-N-ethyl-4-piperidin-4-yl-butyramide fumaric acid salt] | 6.24 | 7.92 | 7.52 |
